Measurements: PubChem BioAssay (NCI)
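Dose response: 5 concentrations. Exposure: 48 h. Format: 96-well plates. Endpoint: linear interpolation; highest concentration if not reached. The concentration for 50% growth inhibition is given as GI50. TGI is the concentration that stops growth completely.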

Key:
Experiment in all cases: DTP human tumour cell line panel, 48 h
[1] = test system: TK-10 renal
[2] = test system: KM12 colon
[3] = test system: SK-MEL-2 melanoma
[4] = test system: A549 NSCLC
[5] = test system: RXF 393 renal
[6] = test system: HOP-92 NSCLC
[7] = test system: SNB-75 CNS
[8] = test system: K-562 leukemia
[9] = test system: T-47D breast
[10] = test system: PC-3 prostate

## Cc1ccc(S(=O)(=O)N/N=C(/c2nc3ccc([N+](=O)[O-])cc3[nH]c2=O)C(O)c2ccc(C(O)/C(=N\NS(=O)(=O)c3ccc(C)cc3)c3nc4ccc([N+](=O)[O-])cc4[nH]c3=O)cc2)cc1 (stereo unspecified)
[1]
  TGI: > 100 µM
[2]
  TGI: > 100 µM
[3]
  TGI: > 100 µM
[4]
  TGI: > 100 µM
[5]
  TGI: > 100 µM
[6]
  TGI: > 100 µM
[7]
  TGI: > 100 µM
[8]
  TGI: > 100 µM

## CN1CSC(=S)N(Cc2ccccc2)C1
[9]
  GI50: 4.78 µM
  TGI: 23.4 µM
[10]
  GI50: 42.4 µM
  TGI: > 100 µM
[1]
  GI50: 3.39 µM
  TGI: 9.41 µM
[2]
  GI50: 1.87 µM
  TGI: 4.19 µM
[3]
  GI50: 4.64 µM
  TGI: 18.2 µM
[4]
  GI50: 30.2 µM
  TGI: > 100 µM
[5]
  GI50: 11.7 µM
  TGI: 24 µM
[7]
  GI50: 5.81 µM
  TGI: 65.9 µM
[8]
  GI50: 2.81 µM
  TGI: > 100 µM

## CCN1CCN(C(=O)[C@]23CCC(C)(C)C[C@@H]2C2=CC[C@@H]4[C@@]5(C)C/C(=C/c6ccncc6)C(=O)C(C)(C)[C@@H]5CC[C@@]4(C)[C@]2(C)CC3)CC1
[10]
  GI50: 0.833 µM
  TGI: 2.2 µM
[1]
  GI50: 1.95 µM
  TGI: 3.47 µM
[2]
  GI50: 1.47 µM
  TGI: 2.98 µM
[3]
  GI50: 1.73 µM
  TGI: 3.33 µM
[4]
  GI50: 1.66 µM
  TGI: 4.65 µM
[5]
  GI50: 1.45 µM
  TGI: 2.81 µM
[6]
  GI50: 1.07 µM
  TGI: 2.39 µM
[8]
  GI50: 1.6 µM
  TGI: > 100 µM

## Nc1ncnc2c1ncn2C1CC(OCc2ccccc2[N+](=O)[O-])C(CO)O1 (stereo unspecified)
[1]
  TGI: > 50 µM
[2]
  TGI: > 50 µM
[3]
  TGI: > 50 µM
[4]
  TGI: > 50 µM
[5]
  TGI: 21.4 µM
[6]
  TGI: > 50 µM
[8]
  TGI: > 50 µM

## O=C1Cc2cc(C(=O)NC3C[C@H]4CC[C@@H](C3)N4S(=O)(=O)CC3CCN(CCCC(F)(F)F)CC3)c(Cl)cc2N1 (stereo partly specified)
[9]
  GI50: > 100 µM
  TGI: > 100 µM
[10]
  GI50: > 100 µM
  TGI: > 100 µM
[1]
  GI50: > 100 µM
  TGI: > 100 µM
[2]
  GI50: > 100 µM
  TGI: > 100 µM
[3]
  GI50: > 100 µM
  TGI: > 100 µM
[4]
  GI50: > 100 µM
  TGI: > 100 µM
[6]
  GI50: 67.7 µM
  TGI: > 100 µM
[7]
  GI50: > 100 µM
  TGI: > 100 µM

## O=C(COc1cccc(/C=C2\CSc3ccccc3C2=O)c1)Nc1nccs1
[9]
  GI50: 5.33 µM
  TGI: 23.9 µM
[10]
  GI50: 1.82 µM
  TGI: 4.24 µM
[1]
  GI50: 2.25 µM
  TGI: 4.89 µM
[2]
  GI50: 1.53 µM
  TGI: 2.86 µM
[3]
  GI50: 1.22 µM
  TGI: 3.1 µM
[4]
  GI50: 5.73 µM
  TGI: 18.3 µM
[7]
  GI50: 1.13 µM
  TGI: 12.5 µM
[8]
  GI50: 2.79 µM
  TGI: > 100 µM

## c1ccc2c(c1)cc1n2CC2CN=NC12 (stereo unspecified)
[2]
  TGI: > 100 µM
[3]
  TGI: > 100 µM
[4]
  TGI: > 100 µM
[5]
  TGI: > 100 µM
[7]
  TGI: > 100 µM
[8]
  TGI: > 100 µM

## COC(=O)C=Cc1ccc2nncnc2c1 (mixture of isomers)
[9]
  TGI: > 100 µM
[10]
  TGI: > 100 µM
[1]
  TGI: > 100 µM
[2]
  TGI: 99 µM
[3]
  TGI: > 100 µM
[4]
  TGI: 56.4 µM
[7]
  TGI: 55.1 µM
[8]
  TGI: > 100 µM

## CC1=C(C(=O)Nc2cc(F)c(F)cc2F)C(c2ccc([N+](=O)[O-])cc2)C(C(=O)Nc2cc(F)c(F)cc2F)=C(C)N1
[1]
  TGI: 95.1 µM
[2]
  TGI: > 100 µM
[3]
  TGI: > 100 µM
[4]
  TGI: > 100 µM
[5]
  TGI: 63.2 µM
[6]
  TGI: 42.2 µM
[7]
  TGI: 63 µM
[8]
  TGI: > 100 µM

## Cn1nc(-c2ccccc2)c2c(/C=C/c3ccccc3)onc2c1=O
[1]
  TGI: > 100 µM
[2]
  TGI: > 100 µM
[3]
  TGI: > 100 µM
[4]
  TGI: > 100 µM
[5]
  TGI: > 100 µM
[6]
  TGI: 98.2 µM
[7]
  TGI: 64.5 µM
[8]
  TGI: > 100 µM

## CC(=O)C1=C(O)C2C3c4c[nH]c5cccc(c45)CC3C(C)(C)N2C1=O (stereo unspecified)
[1]
  TGI: > 100 µM
[2]
  TGI: > 100 µM
[3]
  TGI: 44.6 µM
[4]
  TGI: > 100 µM
[6]
  TGI: > 100 µM
[8]
  TGI: > 100 µM

## CCOC(=O)c1cnc2c(C)cccc2c1Nc1ccc(C(C)=O)cc1
[9]
  GI50: 8.2 µM
  TGI: 44.9 µM
[10]
  GI50: 36.6 µM
  TGI: > 100 µM
[1]
  GI50: 32.8 µM
  TGI: 82.9 µM
[2]
  GI50: 51.2 µM
  TGI: > 100 µM
[4]
  GI50: 38.8 µM
  TGI: > 100 µM
[5]
  GI50: 4.23 µM
  TGI: 63.8 µM
[6]
  GI50: 8.95 µM
  TGI: 36.9 µM
[7]
  GI50: 15.4 µM
  TGI: 51 µM
[8]
  GI50: > 100 µM
  TGI: > 100 µM

## C#CCOc1ccc2ncnc(Nc3ccc(NC(=O)C=C)cc3)c2c1
[9]
  GI50: 3.53 µM
  TGI: > 100 µM
[10]
  GI50: 70.4 µM
  TGI: > 100 µM
[1]
  GI50: 2.62 µM
  TGI: 9.03 µM
[2]
  GI50: 34.6 µM
  TGI: > 100 µM
[3]
  GI50: > 100 µM
  TGI: > 100 µM
[4]
  GI50: > 100 µM
  TGI: > 100 µM
[5]
  GI50: 15.2 µM
  TGI: 58.8 µM
[6]
  GI50: 7.84 µM
  TGI: 52.7 µM
[8]
  GI50: 3.38 µM
  TGI: 23.6 µM

## COc1ccc(N=N/C(C(=O)C(F)(F)F)=C(\O)c2ccc(Cl)cc2)cc1
[9]
  GI50: 5.98 µM
  TGI: 64.9 µM
[10]
  GI50: 10.4 µM
  TGI: > 100 µM
[1]
  GI50: 18.3 µM
  TGI: 61.4 µM
[2]
  GI50: 2.61 µM
  TGI: 38.7 µM
[3]
  GI50: 2.78 µM
  TGI: 8.68 µM
[4]
  GI50: 3.83 µM
  TGI: 16.8 µM
[5]
  GI50: 12.3 µM
  TGI: 45 µM
[7]
  GI50: 10.3 µM
  TGI: 37.6 µM
[8]
  GI50: 3.47 µM
  TGI: > 100 µM

## CCOc1ccc(NC(=O)CC2C(=O)Nc3ccccc3S2(=O)=O)cc1 (stereo unspecified)
[1]
  TGI: > 100 µM
[2]
  TGI: > 100 µM
[3]
  TGI: > 100 µM
[4]
  TGI: > 100 µM
[5]
  TGI: > 100 µM
[6]
  TGI: 55.5 µM
[7]
  TGI: 43.2 µM
[8]
  TGI: > 100 µM

## CC(=O)OC1COC(n2c(=S)n(-c3ccccc3)c(=O)c3ccccc32)C(OC(C)=O)C1OC(C)=O (stereo unspecified)
[2]
  TGI: > 100 µM
[3]
  TGI: > 100 µM
[4]
  TGI: > 100 µM
[5]
  TGI: > 100 µM
[6]
  TGI: > 100 µM
[7]
  TGI: > 100 µM
[8]
  TGI: > 100 µM

## C=CCc1cc(OC)c2c(c1)C(OC)CC(c1ccc(OC)c(OC)c1)O2 (stereo unspecified)
[1]
  TGI: > 100 µM
[2]
  TGI: > 100 µM
[3]
  TGI: > 100 µM
[4]
  TGI: > 100 µM
[7]
  TGI: > 100 µM
[8]
  TGI: > 100 µM

## CC1(C)C(=O)C(C)(C)C1=S
[1]
  TGI: > 100 µM
[2]
  TGI: > 100 µM
[3]
  TGI: > 100 µM
[4]
  TGI: > 100 µM
[7]
  TGI: > 100 µM
[8]
  TGI: > 100 µM

## CN1c2ccccc2N(C(=O)c2ccccc2)C(CC(=O)O)c2cccn21 (stereo unspecified)
[1]
  TGI: > 100 µM
[2]
  TGI: > 100 µM
[3]
  TGI: > 100 µM
[4]
  TGI: > 100 µM
[5]
  TGI: > 100 µM
[6]
  TGI: > 100 µM
[7]
  TGI: > 100 µM
[8]
  TGI: > 100 µM
